Test results published in US8829035B2, “Agent for treatment or prevention of diseases associated with activity of neurotrophic factors” (Sumitomo Chemical Company, Limited, priority 2009, dated 2014).
Where a name gives a salt, the structure may show the parent alone.

tested on: activity of 200 ng/mL of NGF (NXF promoter-driven luciferase in PC12 cells); test: Luciferase reporter assay (NXF promoter) in PC12 cells: potentiation of NGF activity; type: cell-based, rat; parameters: key: +: Showed relatively weak potentiation (potentiation only exhibited at 10 μM); ++: Showed potentiation; +++: Showed particularly strong potentiation (2-fold or greater potentiation of the activity of 200 ng/mL of NGF at 1 μM); conditions: Test Example 1, relative luciferase activity vs 200 ng/mL NGF alone, overnight (approx. 16 hours)
Procedure: The forward primer 5′-[…]-3′ and the reverse primer 5′-[…]-3′ were prepared as the PCR primers according to the sequence information for the NXF gene genome sequence (Accession Nos. AB054577 and NC—000085), and the PCR method was used to isolate from approximately 5 kbp upstream from the translated region of the NXF gene promoter portion to the vicinity of the transcription start site. For this, 1 μg of mouse genomic DNA (Takara) was used as the template, and the 2-step PCR reaction was carried out for 35 cycles, the conditions for which were 95° C./1 m in the denaturing step, and 68° C./8 m in the annealing and extension steps, to obtain the PCR product. The NXF promoter fragment was inserted into the SmaI site of the pGL3 Basic vector (Promega) in the upstream of luciferase gene to prepare a reporter plasmid that would express the luciferase enzyme driven by the NXF promoter.
PC12 cells (available from the ATCC) were cultured using RPMI medium (GIBCO-BRL) with 5% FCS (GIBCO-BR) and 15% horse serum (GIBCO-BRL) added, and 1 mM in sodium pyruvate (GIBCO-BRL), at 37° C. in the presence of 5% CO2. After transfection in 10^6 of these PC12 cells for 2 days with 12 μg of the above-described reporter plasmid and 1 μg of pRC/RSV vector (Invitrogen) using the Lipofectamine 2000 reagent (Invitrogen), the medium was exchanged for fresh medium containing 40 mg/L of geneticin sulfate (GIBCO), and this was cultured continuously. Culturing was continued for approximately 1 month with medium exchange of the cultured medium containing 40 mg/L of geneticin sulfate (GIBCO) every several days, with the result that multiple colonies of the obtained cells were picked up. Among these, one of the colonies that induced luciferase activity in the presence of 40 ng/mL of NGF (Wako Pure Chemicals) was selected and used for the cells to evaluate the activity of the compounds below.
These cells were set up in 96-well plates with 80% confluence, and the luciferase reporter assay was conducted using the Promega Steady Glo luciferase assay kit. The procedure was carried out overnight (approx. 16 hours) using culture medium containing the compound, and the Steady Glo substrate solution was added to the cells in half-diluted in PBS after removal of all remaining medium containing the compound. After this was allowed to stand for 30 minutes, the respective quantity of light produced was measured with a luminometer (Envision Perkin Elmer).
The activity of the compounds for evaluation was measured as the potentiation of the activity of 200 ng/mL of NGF. For the experiment control wells, the negative control well had medium containing only a final concentration of 0.1% DMSO, the positive control well had medium containing a saturation concentration of NGF. In addition, a test well was set up containing 0.1% DMSO with 200 ng/mL of NGF added corresponding to a 0 compound concentration. When its luciferase activity was taken as a standard, the relative luciferase activity could be calculated for the test wells to which the compound solution (dissolved in DMSO and prepared to have a final DMSO concentration of 0.1%) had been added in addition to the 200 ng/mL of NGF, to find the potentiation of the activity of 200 ng/mL of NGF due to that compound.

Row | Structure (SMILES) | Activity (potentiation of NGF activity)
1 | c1ccc(CNCc2nc3cc(-c4nc5ccccc5o4)ccc3n2C2CCOCC2)cc1 [Ex. 32, 5-(benzoxazol-2-yl)-2-benzylaminomethyl-1-(tetrahydropyran-4-yl)benzimidazole] | ++
2 | CCOC(=O)N1CCC(n2c(C)nc3cc(-c4nc5ccccc5o4)ccc32)CC1 [Ex. 33, 5-(benzoxazol-2-yl)-1-((1-ethoxycarbonyl)piperidine-4-yl)-2-methylbenzimidazole] | ++
3 | Cc1nc2cc(-c3nc4ccccc4o3)ccc2n1C1CCNCC1 [Ex. 35, 5-(benzoxazol-2-yl)-1-(piperidine-4-yl)-2-methylbenzimidazole] | ++
4 | Cc1nc2cc(-c3cc4ccccc4n3C(=O)OC(C)(C)C)ccc2n1C1CCOCC1 [Ex. 37, 5-(N-t-butoxycarbonylindol-2-yl)-2-methyl-1-(tetrahydropyran-4-yl)benzimidazole] | ++
5 | Cc1nc2cc(-c3cc4ccccc4[nH]3)ccc2n1C1CCOCC1 [Ex. 38, 5-(indol-2-yl)-1-(tetrahydropyran-4-yl)-2-methylbenzimidazole] | ++
6 | c1ccc2oc(-c3ccc4c(c3)nc(-c3ncc[nH]3)n4C3CCOCC3)nc2c1 [Ex. 44, 5-(benzoxazol-2-yl)-2-(imidazol-2-yl)-1-(tetrahydropyran-4-yl)benzimidazole] | ++

same assay, conditions: Test Example 4, same manner as Test Example 1, relative luciferase activity vs 200 ng/mL NGF alone

Row | Structure (SMILES) | Activity (potentiation of NGF activity)
7 | Cc1nc2cc(-c3nc4ccccc4o3)ccc2n1CCc1ccccc1 [Ex. 52, 5-(benzoxazol-2-yl)-2-methyl-1-(2-phenylethyl)benzimidazole] | ++
8 | Cc1nc2cc(-c3nc4ccccc4o3)ccc2n1C1CC1 [Ex. 53, 5-(benzoxazol-2-yl)-2-methyl-1-cyclopropylbenzimidazole] | ++
9 | Cc1nc2cc(-c3nc4ccccc4o3)ccc2n1CCNC(=O)OC(C)(C)C [Ex. 55, 5-(benzoxazol-2-yl)-1-(2-(tert-butoxycarbonylamino)ethyl)-2-methylbenzimidazole] | ++
10 | Cc1nc2cc(-c3nc4ccccc4o3)ccc2n1CCN [Ex. 56, 1-(2-aminoethyl)-5-(benzoxazol-2-yl)-2-methylbenzimidazole hydrochloride] | ++
11 | CC(C)(C)OC(=O)NCc1nc2cc(-c3nc4ccccc4o3)ccc2n1C1CCOCC1 [Ex. 58, 5-(benzoxazol-2-yl)-2-(tert-butoxycarbamidomethyl)-1-(tetrahydropyran-4-yl)benzimidazole] | ++
12 | Cc1nc2cc(-c3nc4cc([N+](=O)[O-])ccc4o3)ccc2n1C1CCOCC1 [Ex. 60, 5-(5-nitrobenzoxazol-2-yl)-2-methyl-1-(tetrahydropyran-4-yl)benzimidazole] | ++
13 | c1ccc(Cc2nc3cc(-c4nc5ccccc5o4)ccc3n2C2CCOCC2)cc1 [Ex. 61, 5-(benzoxazol-2-yl)-2-benzyl-1-(tetrahydropyran-4-yl)benzimidazole] | ++
14 | C(=C\c1nc2cc(-c3nc4ccccc4o3)ccc2n1C1CCOCC1)/c1ccccc1 [Ex. 62, 5-(benzoxazol-2-yl)-2-trans-cinnam-1-(tetrahydropyran-4-yl)benzimidazole] | ++
15 | c1ccc2oc(-c3ccc4c(c3)nc(-c3ccoc3)n4C3CCOCC3)nc2c1 [Ex. 64, 5-(benzoxazol-2-yl)-2-(furan-3-yl)-1-(tetrahydropyran-4-yl)benzimidazole] | ++
16 | COc1ccc2oc(-c3ccc4c(c3)nc(C)n4C3CCOCC3)nc2c1 [Ex. 66, 5-(5-methoxybenzoxazol-2-yl)-2-methyl-1-(tetrahydropyran-4-yl)benzimidazole] | ++
17 | NCc1nc2cc(-c3nc4ccccc4o3)ccc2n1C1CCOCC1 [Ex. 67, 2-aminomethyl-5-(benzoxazol-2-yl)-1-(tetrahydropyran-4-yl)benzimidazole hydrochloride] | +
18 | c1ccc(CCc2nc3cc(-c4nc5ccccc5o4)ccc3n2C2CCOCC2)cc1 [Ex. 68, 5-(benzoxazol-2-yl)-2-(2-phenylethyl)-1-(tetrahydropyran-4-yl)benzimidazole] | ++
19 | C(#Cc1nc2cc(-c3nc4ccccc4o3)ccc2n1C1CCOCC1)c1ccccc1 [Ex. 69, 5-(benzoxazol-2-yl)-2-(2-phenylethynyl)-1-(tetrahydropyran-4-yl)benzimidazole] | ++
20 | Cc1nc2cc(-c3nc4cc(C5CCCCC5)ccc4o3)ccc2n1C1CCOCC1 [Ex. 72, 5-(5-cyclohexylbenzoxazol-2-yl)-2-methyl-1-(tetrahydropyran-4-yl)benzimidazole] | ++
21 | Cc1nc2cc(-c3nc4cc(C#N)ccc4o3)ccc2n1C1CCOCC1 [Ex. 75, 5-(5-cyanobenzoxazol-2-yl)-2-methyl-1-(tetrahydropyran-4-yl)benzimidazole] | ++
22 | Cc1nc2cc(-c3nc4cc(OC(F)(F)F)ccc4o3)ccc2n1C1CCOCC1 [Ex. 76, 5-(5-trifluoromethoxybenzoxazol-2-yl)-2-methyl-1-(tetrahydropyran-4-yl)benzimidazole] | ++
23 | ClC(Cl)(Cl)c1nc2cc(-c3nc4ccccc4o3)ccc2n1C1CCOCC1 [Ex. 77, 5-(benzoxazol-2-yl)-1-(tetrahydropyran-4-yl)-2-trichloromethylbenzimidazole] | +
24 | Cc1nc2cc(-c3nc4ccccc4o3)ccc2n1C1CCC(=O)CC1 [Ex. 78, 5-(benzoxazol-2-yl)-1-(cyclohexanon-4-yl)-2-methylbenzimidazole] | ++
25 | Cc1nc2cc(-c3nc4ccccc4o3)ccc2n1Cc1ccccn1 [Ex. 79, 5-(benzoxazol-2-yl)-2-methyl-1-(2-picolyl)benzimidazole] | ++
26 | Cc1nc2cc(-c3nc4ccccc4o3)ccc2n1CCC1CCOCC1 [Ex. 83, 5-(benzoxazol-2-yl)-2-methyl-1-(2-(tetrahydropyran-4-yl)ethyl)benzimidazole] | ++
27 | Cc1nc2cc(-c3nc4ccccc4o3)ccc2n1CC1CCOCC1 [Ex. 84, 5-(benzoxazol-2-yl)-2-methyl-1-((tetrahydropyran-4-yl)methyl)benzimidazole] | ++
28 | CCOC(=O)Cc1nc2cc(-c3nc4ccccc4o3)ccc2n1C1CCOCC1 [Ex. 86, 5-(benzoxazol-2-yl)-2-(ethoxycarbonylmethyl)-1-(tetrahydropyran-4-yl)benzimidazole] | ++
29 | Cc1nc2cc(-c3nc4ccccc4o3)ccc2n1C1CCCc2ccccc21 (stereo not shown) [Ex. 87, 5-(benzoxazol-2-yl)-2-methyl-1-(1,2,3,4-tetrahydronaphthalen-1-yl)benzimidazole] | ++
30 | Cc1nc2cc(-c3nc4ccccc4o3)ccc2n1C(c1ccccc1)c1ccccc1 [Ex. 89, 5-(benzoxazol-2-yl)-2-diphenylmethyl-2-methylbenzimidazole] | ++
31 | c1ccc2oc(-c3ccc4c(c3)nc(C3CCCO3)n4C3CCOCC3)nc2c1 (stereo not shown) [Ex. 90, 5-(benzoxazol-2-yl)-2-(tetrahydrofuran-2-yl)-1-(tetrahydropyran-4-yl)benzimidazole] | ++
32 | Cc1nc2cc(-c3nc4ccccc4o3)ccc2n1CC(=O)O [Ex. 92, 5-(benzoxazol-2-yl)-1-carboxymethyl-2-methylbenzimidazole] | ++
33 | Cc1nc2cc(-c3nc4ccccc4o3)cc(C(F)(F)F)c2n1C1CCOCC1 [Ex. 94] | ++
34 | Cc1nc2cc(-c3nc4ccccc4o3)ccc2n1CCCN1CCOCC1 [Ex. 96, 5-(benzoxazol-2-yl)-2-methyl-1-(3-(morpholine-4-yl)propyl)benzimidazole] | ++
